Source: patent US12252481B2, “Anti-viral compounds” (Aligos Therapeutics, Inc., priority 2021, dated 2025)
Read-outs that look alike come from different tables or passages of the source.

Assays:
[1] = biological target: T1, SARS-Cov-2 3CLpro (Severe acute respiratory syndrome coronavirus 2, UniProt P0DTD1); assay: biochemical
T1 construct: 3CLpro and HRV3C was added using a Multidrop Combi

[2] = biological target: T2, HRV3C (Human rhinovirus 14, UniProt P03303); assay: biochemical; parameters: species or system HRV
T2 construct: 3CLpro and HRV3C was added using a Multidrop Combi

[3] = test system: human beta-coronavirus OC43; assay: OC43 coronavirus antiviral assay in HeLa cells (cytopathic effect, cell-titer-glo); assay type: cell-based; conditions: 6 days at 33° C., read-out: EC50 (class)
[4] = test system: SARS-CoV-2-GHB-03021/2020; assay type: cell-based; conditions: read-out: VeroE6 + CP (EC50)
[5] = test system: B.1.1.7 lineage SARS-CoV-2; assay: microbe, parasite or virus in culture; assay type: cell-based
[6] = biological target: T3, human cathepsin L (Homo sapiens, UniProt P07711); assay: Cathepsin L assay (Z-FR-AMC fluorescence); assay type: biochemical; conditions: 10 pM human cathepsin L, 30 mins preincubation, Z-FR-AMC 2 μM
T3 construct: purchased R&D Systems
Outline: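 IC50 values were taken from four-parameter fits of fluorescence read at 355/460 nm every 2 minutes for 30 minutes. The reaction started when 2 μM Z-FR-AMC was added. Before that, 10 pM human cathepsin L had been preincubated with inhibitor for 30 minutes.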

[7] = in vitro; conditions: human
[8] = in vitro; conditions: human; remark: listed apart in the source
[9] = Cytotoxicity in HeLa cells without OC43 virus (cell-titer-glo); conditions: human
[10] = test system: HeLa cells
[11] = test system: Vero E6-eGFP cells; conditions: read-out: VeroE6 + CP (CC50), absence of virus, numeric values
[12] = test system: A549-dual_ACE2_TMPRSS2 cells; conditions: read-out: A549-dual_ACE2_TMPRSS2 (CC50); assay medium without virus, MTS, numeric values
[13] = test system: SARS-CoV-2; conditions: cited from earlier work
[14] = biological target: 3CLpro (Severe acute respiratory syndrome coronavirus 2, UniProt P0DTD1); conditions: cited from earlier work
[15] = 3CLpro, 30 mins preincubation, SAMDI-MS, read-out: SARS-Cov-2 IC50 (class)
[16] = HRV3C, 30 mins preincubation, SAMDI-MS, read-out: HRV IC50 (bound)
[17] = Betacoronavirus 1, OC43, HeLa, 144 h
[18] = Severe acute respiratory syndrome coronavirus 2, 96 h; read-out: A549-dual_ACE2_TMPRSS2 (EC50)
[19] = read-out: A549-dual_ACE2_TMPRSS2 (EC50)

T3 sequence (P07711 114-333): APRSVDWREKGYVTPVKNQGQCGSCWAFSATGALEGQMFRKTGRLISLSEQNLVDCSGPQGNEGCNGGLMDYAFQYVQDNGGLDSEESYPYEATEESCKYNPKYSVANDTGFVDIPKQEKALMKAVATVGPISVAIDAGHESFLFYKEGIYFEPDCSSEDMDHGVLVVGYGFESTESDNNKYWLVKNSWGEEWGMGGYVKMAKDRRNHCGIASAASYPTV
T2 sequence (P03303 1538-1719): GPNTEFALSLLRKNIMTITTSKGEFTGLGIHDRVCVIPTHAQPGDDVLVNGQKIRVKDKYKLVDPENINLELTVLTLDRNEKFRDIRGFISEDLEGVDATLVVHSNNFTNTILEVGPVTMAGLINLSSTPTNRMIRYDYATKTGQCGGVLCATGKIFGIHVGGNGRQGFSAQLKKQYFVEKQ

Compound | IC50 [1, 15] [nM] | IC50 [2, 16] [nM] | EC50 [3, 17] [nM] | EC50 [4] [nM] | EC50 [5, 18] [nM] | IC50 [6] [nM] | CC50 [7] [nM] | CC50 [8] [nM] | further results
CC(C)(C)[C@H](NC(=O)C(F)(F)F)C(=O)N1C[C@H]2[C@@H]([C@H]1C(=O)N[C@H](C#N)CC1Cc3ccccc3NC1=O)[C@H]1C=C[C@@H]2C1 (stereo partly drawn) [Example 29, (1S,3aR,4S,7R,7aS)—N-((1S)-1-cyano-2-(2-oxo-1,2,3,4-tetrahydroquinolin-3-yl)ethyl)-2-((S)-3,3-dimethyl-2-(2,2,2-trifluoroacetamido)butanoyl)-2,3,3a,4,7,7a-hexahydro-1H-4,7-methanoisoindole-1-carboxamide] | < 20 | > 10000 | < 100 | < 100 | < 100 | ≥ 10000 | > 10000 | > 10000 | –
CC(C)(C)[C@H](NC(=O)C(F)(F)F)C(=O)N1C[C@H]2[C@@H]([C@H]1C(=O)N[C@H](C#N)C[C@@H]1CCNC1=O)[C@H]1C=C[C@@H]2C12CC2 [Example 25, (1′R,2′S,3′S,6′R,7′S)—N-[(1S)-1-cyano-2-[(3S)-2-oxopyrrolidin-3-yl]ethyl]-4′-[(2S)-3,3-dimethyl-2-(2,2,2-trifluoroacetamido)butanoyl]-4′-azaspiro[cyclopropane-1,10′-tricyclo[5.2.1.0^{2,6}]decan]-8′-ene-3′-carboxamide] | – | – | < 100 | 100 to 1000 | – | ≥ 10000 | – | > 10000 | IC50 [1]: < 20 nM; IC50 [2]: > 10000 nM; EC50 ([5]; Severe acute respiratory syndrome coronavirus 2, 96 h, read-out: A549-dual_ACE2_TMPRSS2 (EC50)): 100 to 1000 nM; CC50 at 6 days [9]: > 100000 nM
CC(C)(C)[C@H](NC(=O)C1CC1)C(=O)N1C[C@H]2[C@@H]([C@H]1C(=O)N[C@H](C#N)C[C@@H]1CCNC1=O)[C@H]1C=C[C@@H]2C1 [Example 21, (1R,2S,3S,6R,7S)—N-[(1S)-1-cyano-2-[(3S)-2-oxopyrrolidin-3-yl]ethyl]-4-[(2S)-2-(cyclopropylformamido)-3,3-dimethylbutanoyl]-4-azatricyclo[5.2.1.0^{2,6}]dec-8-ene-3-carboxamide] | < 20 | > 10000 | – | < 100 | – | ≥ 10000 | – | – | EC50 [3]: < 100 nM; EC50 [5, 19]: < 100 nM; CC50 [10]: > 100000 nM; CC50 [11]: > 50000 nM; CC50 [12]: > 10000 nM
CC(C)(C)[C@H](NC(=O)c1ccccn1)C(=O)N1C[C@H]2[C@@H]([C@H]1C(=O)N[C@H](C#N)C[C@@H]1CCNC1=O)[C@H]1C=C[C@@H]2C1 [Example 5, (1R,2S,3S,6R,7S)—N-[(1S)-1-cyano-2-[(3S)-2-oxopyrrolidin-3-yl]ethyl]-4-[(2S)-3,3-dimethyl-2-(pyridin-2-ylformamido)butanoyl]-4-azatricyclo[5.2.1.0^{2,6}]dec-8-ene-3-carboxamide] | 200 to 2000 | > 10000 | – | 1000 to 10000 | – | ≥ 10000 | – | – | EC50 [3]: 100 to 1000 nM; EC50 [5, 19]: 1000 to 10000 nM; CC50 [10]: > 100000 nM; CC50 [11]: > 50000 nM; CC50 [12]: > 10000 nM
CN1CCN(C(=O)N[C@@H](Cc2ccccc2)C(=O)N[C@H](/C=C/S(=O)(=O)c2ccccc2)CCc2ccccc2)CC1 [Example K117777] | – | – | – | – | – | – | – | – | antiviral effect ([13]; A549-ACE2 when TMPRSS2 was expressed (Steuten et al.)): abolished; inhibition of SARS-CoV-2 ([13]; VeroE6, A549-ACE2 and/or HeLa-ACE2 (Mellott et al.)): potent inhibition; inhibitory effect on the 3CLpro [14]: lacks an inhibitory effect
Cc1cn(C(C(=O)N2C[C@H]3[C@@H]([C@H]2C(=O)N[C@H](C#N)C[C@@H]2CCNC2=O)[C@H]2C=C[C@@H]3C2)C(C)(C)C)nn1 (stereo partly shown) [Compound 53] | 20 to 200 | > 10000 | 1000 to 10000 | 100 to 1000 | 1000 to 10000 | ≥ 10000 | > 10000 | > 10000 | –
CO[C@H](C(C)C)[C@H](NC(=O)C(F)(F)C(F)(F)F)C(=O)N1C[C@H]2[C@@H]([C@H]1C(=O)N[C@H](C#N)C[C@@H]1CCNC1=O)[C@H]1C=C[C@@H]2C1 [Compound 135] | < 20 | > 500 | – | – | < 100 | ≥ 10000 | – | > 1000 | –
CC(C)(C)[C@H](NC(=O)C(F)(F)F)C(=O)N1C[C@@H]2[C@@H]3CC[C@@H](C3)[C@@H]2[C@H]1C(=O)N[C@H](C#N)CC1Cc2ccccc2NC1=O (stereo partly drawn) [Example 31, (1S,3aR,4R,7S,7aS)—N-((1S)-1-cyano-2-(2-oxo-1,2,3,4-tetrahydroquinolin-3-yl)ethyl)-2-((S)-3,3-dimethyl-2-(2,2,2-trifluoroacetamido)butanoyl)octahydro-1H-4,7-methanoisoindole-1-carboxamide] | < 20 | > 10000 | 100 to 1000 | 100 to 1000 | < 100 | ≥ 10000 | > 10000 | > 10000 | –
Cc1cc(C(=O)N[C@H](C(=O)N2C[C@H]3[C@@H]([C@H]2C(=O)N[C@H](C#N)C[C@@H]2CCNC2=O)[C@H]2C=C[C@@H]3C2)C(C)(C)C)no1 [Example 4, (1R,2S,3S,6R,7S)—N-[(1S)-1-cyano-2-[(3S)-2-oxopyrrolidin-3-yl]ethyl]-4-[(2S)-3,3-dimethyl-2-[(5-methyl-1,2-oxazol-3-yl)formamido]butanoyl]-4-azatricyclo[5.2.1.0^{2,6}]dec-8-ene-3-carboxamide] | 20 to 200 | > 10000 | – | 100 to 1000 | – | ≥ 10000 | – | – | EC50 [3]: < 100 nM; EC50 [5, 19]: 100 to 1000 nM; CC50 [10]: > 100000 nM; CC50 [11]: > 50000 nM; CC50 [12]: > 10000 nM
[2H]C1=C[C@@H]2C[C@H]1[C@H]1[C@@H]2CN(C(=O)[C@@H](NC(=O)C(F)(F)C(F)(F)F)C(C)(C)C)[C@@H]1C(=O)N[C@H](C#N)C[C@@H]1CCNC1=O [Compound 125] | < 20 | > 500 | < 100 | – | – | – | > 100000 | – | –
CC(C)(C)[C@H](NC(=O)C(F)(F)F)C(=O)N1C[C@@H]2[C@@H]3CC[C@@H](C3)[C@@H]2[C@H]1C(=O)N[C@H](C#N)C[C@@H]1CC2(CC2)NC1=O [Example 15, (1S,3aR,4R,7S,7aS)-N-((S)-1-cyano-2-((R)-5-oxo-4-azaspiro[2.4]heptan-6-yl)ethyl)-2-((S)-3,3-dimethyl-2-(2,2,2-trifluoroacetamido)butanoyl)octahydro-1H-4,7-methanoisoindole-1-carboxamide] | < 20 | > 10000 | – | < 100 | < 100 | ≥ 10000 | – | > 10000 | –
CC(C)(C)[C@H](NC(=O)C(F)(F)Cl)C(=O)N1C[C@@H]2[C@H]3C[C@@H]([C@@H]2[C@H]1C(=O)N[C@H](C#N)C[C@@H]1CCNC1=O)[C@H](F)C3 [Compound 134, (1S,3aR,4S,6R,7S,7aR)-2-((S)-2-(2-chloro-2,2-difluoroacetamido)-3,3-dimethylbutanoyl)-N-((S)-1-cyano-2-((S)-2-oxopyrrolidin-3-yl)ethyl)-6-fluorooctahydro-1H-4,7-methanoisoindole-1-carboxamide] | < 20 | > 500 | < 100 | – | – | ≥ 10000 | > 100000 | – | –
